Key:
[1] = Determination of partition coefficients between n-octanol and water; type: physicochemical; conditions: pH=7.4, logarithm to base 10
Description: The coefficients of partition between n-octanol and water were determined at pH=7.4 by conventional techniques and are expressed as logarithms to base 10 (Log P).

[2] = target: T1, Na^+ /K^+ /2Cl^- cotransport (Oryctolagus cuniculus, UniProt P55015); assay: Inhibition of Na+/K+/2Cl- cotransport, luminal membrane of the ascending branch of the loop of Henle in the nephron of perfused rabbits; conditions: in vivo
T1 construct: luminal membrane of the ascending branch of the loop of Henle in the nephron of perfused rabbits; from tissue; host or cells: rabbit nephron, ascending branch of the loop of Henle
T1 sequence (P55015 1-1099): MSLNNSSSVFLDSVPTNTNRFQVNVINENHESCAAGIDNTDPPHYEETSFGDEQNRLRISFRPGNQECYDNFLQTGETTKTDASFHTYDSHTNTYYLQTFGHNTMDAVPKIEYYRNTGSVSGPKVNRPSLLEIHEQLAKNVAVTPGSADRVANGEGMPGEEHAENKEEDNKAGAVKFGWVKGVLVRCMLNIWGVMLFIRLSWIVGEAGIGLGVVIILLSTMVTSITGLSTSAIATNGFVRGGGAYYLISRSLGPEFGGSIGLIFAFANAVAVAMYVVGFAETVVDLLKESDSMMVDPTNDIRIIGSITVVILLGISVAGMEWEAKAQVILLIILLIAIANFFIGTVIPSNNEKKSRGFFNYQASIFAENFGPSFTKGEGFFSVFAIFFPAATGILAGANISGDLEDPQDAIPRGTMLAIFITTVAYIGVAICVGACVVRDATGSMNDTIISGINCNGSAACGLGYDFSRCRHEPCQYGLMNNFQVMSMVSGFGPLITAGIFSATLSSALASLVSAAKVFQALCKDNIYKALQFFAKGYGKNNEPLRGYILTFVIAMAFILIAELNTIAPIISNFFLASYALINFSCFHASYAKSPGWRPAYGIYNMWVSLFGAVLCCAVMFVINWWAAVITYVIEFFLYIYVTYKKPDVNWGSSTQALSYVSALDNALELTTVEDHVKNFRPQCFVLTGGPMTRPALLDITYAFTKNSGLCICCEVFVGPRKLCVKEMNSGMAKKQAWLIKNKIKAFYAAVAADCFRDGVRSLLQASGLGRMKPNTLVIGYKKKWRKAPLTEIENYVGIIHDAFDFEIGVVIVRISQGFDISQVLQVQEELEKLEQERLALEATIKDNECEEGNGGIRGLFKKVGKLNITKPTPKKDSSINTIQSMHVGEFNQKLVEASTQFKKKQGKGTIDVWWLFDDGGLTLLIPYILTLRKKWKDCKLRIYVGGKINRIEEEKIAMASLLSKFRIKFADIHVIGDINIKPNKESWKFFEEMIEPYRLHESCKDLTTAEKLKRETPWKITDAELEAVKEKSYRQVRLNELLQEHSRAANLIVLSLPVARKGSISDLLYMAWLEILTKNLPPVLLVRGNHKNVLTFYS
Source text: (§1) The 50% inhibitory concentration for Na^+ /K^+ /2Cl^- cotransport in vivo is decreased, in the case of the compound of Example 3, by about 60% relative to Torasemide (luminal membrane of the ascending branch of the loop of Henle in the nephron of perfused rabbits (Arzneim. Forsch. (1988) 38 (1a), 151-152)), and by 85% relative to Torasemide in the case of the compound of Example 10 (erythrocyte membrane in normotensive rats).

[3] = Determination of pKa (proton acidity constant of SO2-NH-CO-); type: physicochemical
Source text: The pKa values represent the proton acidity constants of SO2 --NH--CO--.

[4] = tested on: Cl^- passage in the kidneys; assay: Inhibition of Cl- passage in the kidneys in vivo
Source text: The 50% inhibitory concentration for Cl^- passage in the kidneys in vivo is decreased, in the case of the compound of Example 8 by about 50% relative to Torasemide and in the case of the compound of Example 18 by 75%.

[5] = target: T2, Na^+ /K^+ /2Cl^- cotransport (Rattus norvegicus, UniProt E9PTX9); assay: Inhibition of Na+/K+/2Cl- cotransport, erythrocyte membrane in normotensive rats; type: in vivo
T2 construct: erythrocyte membrane in normotensive rats; from tissue; host or cells: rat erythrocytes
T2 sequence (E9PTX9 1-1203): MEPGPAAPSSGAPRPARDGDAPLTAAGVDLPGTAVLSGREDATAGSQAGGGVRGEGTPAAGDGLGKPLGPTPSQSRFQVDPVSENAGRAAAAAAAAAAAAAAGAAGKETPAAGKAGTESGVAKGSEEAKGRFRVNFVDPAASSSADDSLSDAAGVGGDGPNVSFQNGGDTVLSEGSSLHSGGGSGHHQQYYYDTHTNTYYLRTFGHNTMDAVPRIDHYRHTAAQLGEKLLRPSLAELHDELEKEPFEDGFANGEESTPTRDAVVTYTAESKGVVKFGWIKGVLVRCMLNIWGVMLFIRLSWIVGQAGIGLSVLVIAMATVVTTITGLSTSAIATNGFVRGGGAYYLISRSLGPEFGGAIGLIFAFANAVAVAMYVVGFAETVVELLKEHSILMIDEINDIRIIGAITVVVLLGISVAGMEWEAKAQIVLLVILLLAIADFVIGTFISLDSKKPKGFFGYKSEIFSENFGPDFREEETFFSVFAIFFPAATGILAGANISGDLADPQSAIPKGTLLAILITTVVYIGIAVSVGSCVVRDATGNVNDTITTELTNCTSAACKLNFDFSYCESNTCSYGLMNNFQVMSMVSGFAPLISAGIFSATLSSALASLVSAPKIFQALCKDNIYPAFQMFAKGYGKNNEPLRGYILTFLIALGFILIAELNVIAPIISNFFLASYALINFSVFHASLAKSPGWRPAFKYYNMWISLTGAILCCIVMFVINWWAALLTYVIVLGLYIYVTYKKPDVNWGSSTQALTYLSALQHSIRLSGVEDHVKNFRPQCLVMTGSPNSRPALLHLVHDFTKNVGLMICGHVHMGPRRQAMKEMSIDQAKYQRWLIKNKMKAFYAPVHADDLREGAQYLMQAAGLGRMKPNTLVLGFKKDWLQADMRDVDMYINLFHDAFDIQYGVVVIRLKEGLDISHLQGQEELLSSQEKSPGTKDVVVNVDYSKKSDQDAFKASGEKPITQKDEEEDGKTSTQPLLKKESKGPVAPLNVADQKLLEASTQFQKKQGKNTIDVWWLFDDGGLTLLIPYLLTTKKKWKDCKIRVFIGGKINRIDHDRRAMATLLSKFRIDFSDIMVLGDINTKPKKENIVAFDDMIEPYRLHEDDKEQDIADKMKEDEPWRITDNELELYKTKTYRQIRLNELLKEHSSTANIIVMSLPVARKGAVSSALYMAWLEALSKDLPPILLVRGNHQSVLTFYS
Source text: as §1
This decrease of the 50% inhibitory concentration of the Torasemide for Na^+ /K^+ /[…] co-transport (erythrocyte membrane in normotensive rats) reachs even 90% in the case of the compound of Example 18.

O=C(NC1CCCCCCC1)NS(=O)(=O)c1cnccc1NC1CCCCCCC1 [Example 3, N-((4-(cyclooctylamino)pyrid-3-yl)sulfonyl-N'-cyclooctylurea nitrate]
logD [1]: 2.7
decrease of the 50% inhibitory concentration for Na+/K+/2Cl- cotransport relative to Torasemide [2]: about 60%
pKa [3]: 7.74

O=C(NC1CCCCCC1)NS(=O)(=O)c1cnccc1NC1CCCCCC1 [Example 18, N-((4-(cycloheptylamino)pyrid-3-yl)sulfonyl)-N'-cycloheptylurea]
decrease of the 50% inhibitory concentration for Cl- passage in the kidneys relative to Torasemide [4]: 75%
decrease of the 50% inhibitory concentration for Na+/K+/2Cl- cotransport relative to Torasemide [5]: 90%

O=C(NC1CCCCCCC1)NS(=O)(=O)c1cnccc1NC1CCCCC1 [Example 7, N-((4-(cyclohexylamino)pyrid-3-yl)sulfonyl)-N'-cyclooctylurea]
logD [1]: 2.07
pKa [3]: 9.13

Cc1cccc(Nc2ccncc2S(=O)(=O)NC(=O)NC(C)C)c1 [Torasemide, reference compound]
logD [1]: 0.449
pKa [3]: 6.82

O=C(NC1CCCCC1)NS(=O)(=O)c1cnccc1NC1CCCCCC1 [Example 2, N-((4-(cycloheptylamino)pyrid-3-yl)sulfonyl)-N'-cyclohexylurea]
logD [1]: 1.67
pKa [3]: 9.39

O=C(NC1CCCCCC1)NS(=O)(=O)c1cnccc1NC1CCCCCCC1 [Example 8, N-((4-(cyclooctylamino)pyrid-3-yl)sulfonyl)-N'-cycloheptylurea]
decrease of the 50% inhibitory concentration for Cl- passage in the kidneys relative to Torasemide [4]: about 50%
logD [1]: 2.45
pKa [3]: 9.15

O=C(NC1CCCCC1)NS(=O)(=O)c1cnccc1NC1CCCCC1 [Example 1, N-((4(-cyclohexylamino)pyrid-3-yl)sulfonyl)-N'-cyclohexylurea]
logD [1]: 1.33
pKa [3]: 9.02

O=C(NC1CCCCC1)NS(=O)(=O)c1cnccc1NC1CCCCCCC1 [Example 10, N-((4-(cyclooctylamino)pyrid-3-yl)sulfonyl)-N'-cyclohexylurea]
logD [1]: 2.06
pKa [3]: 8.95
decrease of the 50% inhibitory concentration for Na+/K+/2Cl- cotransport relative to Torasemide [5]: 85%

Reference: US5166162A, “Pyridylsulfonylurea and pyridylsulfonylthiourea compounds” (Adir et Compagnie, priority 1990, dated 1992)
